Values after ≈ are worked out from the molar mass of the structure shown. Values joined by “and” are separate entries in the source; they are usually repeats but may differ in a detail not shown here. Equal values may be shown once.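 Tested at 5 concentrations; 48 h exposure; 96-well plates; endpoints linearly interpolated, else capped at highest concentration. Here, GI50 denotes the concentration required for 50% inhibition of growth. Definition used: TGI = concentration required for complete inhibition of growth.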
Key:
Assay in all cases: growth of human tumour cells (NCI), 48 h
HOP-18 NSCLC = system: HOP-18 NSCLC
RXF-631 renal = system: RXF-631 renal
LXFL 529 NSCLC = system: LXFL 529 NSCLC
DMS 273 small cell lung = system: DMS 273 small cell lung
DU-145 prostate = system: DU-145 prostate
MDA-N = system: MDA-N

Row | SMILES | TGI (LXFL 529 NSCLC) | TGI (DMS 273 small cell lung) | GI50 (DU-145 prostate) | TGI (DU-145 prostate) | further results
1 | O=C1OC(=O)c2c1c(-c1ccccc1)cn2-c1ccc(Cl)cc1 | > 100 µM | > 100 µM | – | – | TGI (HOP-18 NSCLC): > 100 µM; TGI (RXF-631 renal): > 100 µM
2 | C#CCC[C@@H]1O[C@@]1(C)CC/C=C(\C)CC/C=C/C=O | 51.1 µM | 39 µM | – | – | –
3 | CN1CCc2cc3c(cc2C1O)OCO3 (configuration not stated) | – | – | 16.7 µM and > 100 µM | 30.8 µM and > 100 µM | –
4 | COc1ccc(/C=C2\CN(C)Cc3c2nc(N)nc3-c2ccc(OC)cc2)cc1 | > 100 µM | > 100 µM | – | – | –
5 | CC(C)[C@](O)(c1ccc2cc(OC(F)F)c(OC(F)F)cc2c1)c1cn[nH]n1 | – | – | 19.1 µM and 16.4 µM | 45.6 µM and 32 µM | –
6 | COc1ccc(/C(=N/NC(N)=O)C2(O)C(=O)Nc3ccc([N+](=O)[O-])cc32)cc1 (configuration not stated) | 35.9 µM | 39.3 µM | – | – | –
7 | Cc1ccc(NCCCN2CCN(CCCNc3ccc(C)c4sc5ccccc5c(=O)c34)CC2)c2c(=O)c3ccccc3sc12 | – | – | – | > 100 µM | TGI (MDA-N): > 100 µM
8 | COc1cc(CCc2cccnc2)cc(OC)c1OC | > 100 µM | > 100 µM | – | – | TGI (HOP-18 NSCLC): > 100 µM
9 | N#C/C(=C\c1ccccc1O)C(N)=O | > 100 µM | > 100 µM | – | – | TGI (RXF-631 renal): > 100 µM
10 | Cc1c2cnccc2c(C)c2c1c1cc(C3OCCCO3)ccc1n2C | – | – | 0.371 µM | 1.58 µM | –
11 | CCSc1nnc2c(-c3ccccc3)n[nH]c2n1 | – | – | – | > 100 µM | TGI (MDA-N): > 100 µM
12 | CCOc1ccccc1NC(=O)CCC(=O)OC | > 100 µM | > 100 µM | – | – | TGI (HOP-18 NSCLC): > 100 µM
13 | CC(=O)C1=C(O)C=C2Oc3c(C(=O)/C=C/c4cc(C(F)(F)F)cc(C(F)(F)F)c4)c(O)c(C)c(O)c3[C@]2(C)C1=O | – | – | 0.63 µM | 4.91 µM | –
14 | CC(C)(C)OC(=O)NCCNC1=CC(=O)c2nc3ccccc3c3ccnc1c23 | – | – | 22.7 µM | 80.9 µM | –
15 | C[n+]1c(/C=C\C=C\N2CCCCC2)sc2ccccc21 | – | – | 0.598 µM | 17.1 µM | –
16 | CC1=CCC[C@@]2(C)C(CC[C@@H]2C(C)/C=C/C(C)C)c2ccc(cc2C(=O)O)C[C@@H](O)CC1 (some centres not stated) | 23.9 µM | 34.2 µM | – | – | –
17 | COc1cc2c(cc1OC)C13CCN4C=C5CCOC6CC(=O)N2C1C6C5CC43 (configuration not stated) | – | – | – | > 100 µM | TGI (MDA-N): > 100 µM
18 | O=P([O-])(O)OP(=O)([O-])O.[NH-][C@H]1CCCC[C@@H]1[NH-].[OH-].[OH-].[Pt+4] | – | – | 33.3 µM | > 100 µM | –
19 | Cc1ccccc1NC(=S)Nc1ccccn1 | – | – | > 100 µM | > 100 µM | –
20 | C=C1C(=O)O[C@H]2[C@H]1CC/C(CNC(=O)/C=C/c1ccc(Br)cc1)=C\CC[C@@]1(C)O[C@@H]21 | – | – | 0.743 µM | 2.02 µM | –

Row | SMILES | TGI (LXFL 529 NSCLC) | TGI (DMS 273 small cell lung) | GI50 (DU-145 prostate) | TGI (DU-145 prostate) | further results
21 | CC1=CC2CC(C)=C(CC[C@]3(C)CC[C@H]([C@@H](C)C(=O)O)OO3)C(C)(C)C2CC1 (some centres not stated) | 0.414 µM | 1.09 µM | – | – | TGI (HOP-18 NSCLC): 1.45 µM; TGI (RXF-631 renal): 2.95 µM
22 | C[N+]1(C)CCCC1C(=O)[O-] (configuration not stated) | > 100 µM | > 100 µM | – | – | TGI (HOP-18 NSCLC): > 100 µM
23 | Cn1cc(-c2nonc2-c2c[nH]c3ccccc23)c2ccccc21 | – | – | 0.511 µM | 12.7 µM | –
24 | CO/C(=N\N=C\c1cc(OC)ccc1OC)c1ccncc1 | – | – | – | – | TGI (MDA-N): > 10 µM
25 | CC(=O)N1CCN(C2=Nc3ccccc3CO2)C1=S | – | – | > 100 µM | > 100 µM | –
26 | O=C(Nc1c(O)[nH]c(=S)[nH]c1=O)c1ccccn1 | > 100 µM | – | – | – | TGI (HOP-18 NSCLC): > 100 µM; TGI (RXF-631 renal): > 100 µM
27 | COc1cccc2c1C(=O)c1c(O)c3c(c(O)c1C2=O)CC(O)(C(C)=O)CC3OC1CC(N)C(O)C(C)O1 (configuration not stated) | – | – | 0.0208 µg/mL | 1.65 µg/mL | GI50 (MDA-N): 0.156 µg/mL (≈ 0.296 µM); TGI (MDA-N): 0.391 µg/mL
28 | C=C(Cn1c(=O)c2ccccc2c2ccccc21)c1ccc(C(=O)Nc2ccccc2N)cc1 | – | – | > 45.9 µM | > 100 µM | –
29 | COc1ccc(C#Cc2ccccc2C#CCCCCO)cc1 | – | – | 21.3 µM | 52.6 µM | –
30 | CC1CC2C3CC(F)C4=CC(=O)C=CC4(C)C3(F)C(O)CC2(C)C1(O)C(=O)COC(=O)C(C)(C)C (configuration not stated) | – | > 100 µM | – | – | –
31 | CN(C)CCCOc1ccccc1NC1=C(Cl)C(=O)C(Nc2ccccc2OCCCN(C)C)=C(Cl)C1=O | – | – | 0.709 µM | 1.77 µM | –
32 | S=c1sc2c(Cl)ncnc2n1-c1ccccc1 | 24.9 µM | 2.83 µM | – | – | TGI (HOP-18 NSCLC): 39.5 µM
33 | CCN(CC)CCNC(=O)c1ccccc1NC(=O)C(=O)Nc1ccccc1C(=O)NCCN(CC)CC | – | > 100 µM | – | – | TGI (HOP-18 NSCLC): > 100 µM; TGI (RXF-631 renal): > 100 µM
34 | CC/C(Cc1ccccc1)=C(\c1ccc(OCCN2CCCCCC2)cc1)c1ccc(OC(=O)NCc2ccccc2)cc1 | – | – | 3.52 µM | 10.3 µM | –
35 | O=C1c2ccccc2C2(O)Nc3cc(O)ccc3C12O (configuration not stated) | > 100 µM | > 100 µM | – | – | TGI (HOP-18 NSCLC): > 100 µM; TGI (RXF-631 renal): > 100 µM
36 | O=[N+]([O-])c1ccc(Nc2ccccc2-c2ccccc2)c2nonc12 | – | – | 28.2 µM | > 100 µM | –
37 | COC1=CC(c2ccc[nH]2)=N/C1=C\c1[nH]c(C)c(C(=O)OCc2ccccc2)c1C | – | – | 0.0917 µM | 1.92 µM | –
38 | OCCOc1ccc(-c2cc(-c3ccccn3)nc(-c3ccccn3)c2)cc1 | > 100 µM | – | – | > 30.5 µM | TGI (HOP-18 NSCLC): 5.59 µM; TGI (RXF-631 renal): > 100 µM; TGI (MDA-N): > 100 µM
39 | CC(=O)OCC1OC(Nc2[nH]c(=O)n(C)c(=O)c2-c2csc(N)n2)C(OC(C)=O)C(OC(C)=O)C1OC(C)=O (configuration not stated) | > 100 µM | – | – | – | TGI (HOP-18 NSCLC): > 100 µM; TGI (RXF-631 renal): > 100 µM
40 | Nc1ncnc2c1ncn2C1OC(COP(=O)(O)CP(=O)(O)O)C(O)C1O (configuration not stated) | – | – | – | > 100 µM | TGI (MDA-N): > 100 µM

Source: PubChem BioAssay (NCI)
